Results taken from PubChem BioAssay AID1918946 (Molecular Pharmacology Branch, DTP, NCI, 2023).

System: 885512-296-R-J2-PDC complex spheroid viability
Assay: Anticancer human tumor 885512-296-R-J2-PDC patient-derived breast carcinoma cell line growth inhibition
Settings: for IC50: curve of first compound; for viability, T/C: stronger effect = lower value
Procedure, shortened: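 Complex spheroids of tumor cells with HUVEC and human MSCs, exposed to iadademstat combined with other agents. Each agent tested in half-log steps from near clinical Cmax (else 10 microM top), DMSO ≤0.25%.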

[1] = second compound 0.1 µM, first compound 0.0316 µM
[2] = second compound 0.1 µM, first compound 0.1 µM
[3] = second compound 0.1 µM, first compound 0.316 µM
[4] = second compound 0.1 µM, first compound 1 µM
[5] = second compound 0.316 µM, first compound 0.0316 µM
[6] = second compound 0.316 µM, first compound 0.1 µM
[7] = second compound 0.316 µM, first compound 0.316 µM
[8] = second compound 0.316 µM, first compound 1 µM
[9] = second compound 1 µM, first compound 0.0316 µM
[10] = second compound 1 µM, first compound 0.1 µM
[11] = second compound 1 µM, first compound 0.316 µM
[12] = second compound 1 µM, first compound 1 µM
[13] = second compound 3.16 µM, first compound 0.0316 µM
[14] = second compound 3.16 µM, first compound 0.1 µM
[15] = second compound 3.16 µM, first compound 0.316 µM
[16] = second compound 3.16 µM, first compound 1 µM
[17] = second compound 10 µM, first compound 0.0316 µM
[18] = second compound 10 µM, first compound 0.1 µM
[19] = second compound 10 µM, first compound 0.316 µM
[20] = second compound 10 µM, first compound 1 µM
[21] = second compound 0.1 µM, first compound 0.00949 µM
[22] = second compound 0.1 µM, first compound 0.03 µM
[23] = second compound 0.1 µM, first compound 0.0949 µM
[24] = second compound 0.1 µM, first compound 0.3 µM
[25] = second compound 0.316 µM, first compound 0.00949 µM
[26] = second compound 0.316 µM, first compound 0.03 µM
[27] = second compound 0.316 µM, first compound 0.0949 µM
[28] = second compound 0.316 µM, first compound 0.3 µM
[29] = second compound 1 µM, first compound 0.00949 µM
[30] = second compound 1 µM, first compound 0.03 µM
[31] = second compound 1 µM, first compound 0.0949 µM
[32] = second compound 1 µM, first compound 0.3 µM
[33] = second compound 3.16 µM, first compound 0.00949 µM
[34] = second compound 3.16 µM, first compound 0.03 µM
[35] = second compound 3.16 µM, first compound 0.0949 µM
[36] = second compound 3.16 µM, first compound 0.3 µM
[37] = second compound 10 µM, first compound 0.00949 µM
[38] = second compound 10 µM, first compound 0.03 µM
[39] = second compound 10 µM, first compound 0.0949 µM
[40] = second compound 10 µM, first compound 0.3 µM
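Note: spheroids exposed to agents for 7 days before viability read.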

CC1COCCN1c1cc(C2(S(C)(=N)=O)CC2)nc(-c2ccnc3[nH]ccc23)n1 (stereo not given) + NC1CC1c1ccc(-c2cccc(O)c2)cc1
IC50 (second compound 0.1 µM): 501 nM
IC50 (second compound 0.316 µM): 466 nM
IC50 (second compound 1 µM): 338 nM
IC50 (second compound 3.16 µM): 412 nM
IC50 (second compound 10 µM): 216 nM
viability, T/C [1]: 110%
viability, T/C [2]: 116%
viability, T/C [3]: 76.1%
viability, T/C [4]: 11.1%
viability, T/C (second compound 0.1 µM, first compound 3.16 µM): 3.64%
viability, T/C (second compound 0.1 µM, first compound 10 µM): 2.7%
viability, T/C [5]: 139%
viability, T/C [6]: 112%
viability, T/C [7]: 72.3%
viability, T/C [8]: 10.7%
viability, T/C (second compound 0.316 µM, first compound 3.16 µM): 3.33%
viability, T/C (second compound 0.316 µM, first compound 10 µM): 2.63%
viability, T/C [9]: 118%
viability, T/C [10]: 113%
viability, T/C [11]: 52.3%
viability, T/C [12]: 8.24%
viability, T/C (second compound 1 µM, first compound 3.16 µM): 3.25%
viability, T/C (second compound 1 µM, first compound 10 µM): 2.72%
viability, T/C [13]: 114%
viability, T/C [14]: 101%
viability, T/C [15]: 63.1%
viability, T/C [16]: 9.16%
viability, T/C (second compound 3.16 µM, first compound 3.16 µM): 3.38%
viability, T/C (second compound 3.16 µM, first compound 10 µM): 2.43%
viability, T/C [17]: 79.9%
viability, T/C [18]: 76.5%
viability, T/C [19]: 37%
viability, T/C [20]: 8.1%
viability, T/C (second compound 10 µM, first compound 3.16 µM): 3.13%
viability, T/C (second compound 10 µM, first compound 10 µM): 2.67%

CCN(c1cc(-c2ccc(CN3CCOCC3)cc2)cc(C(=O)NCc2c(C)cc(C)[nH]c2=O)c1C)C1CCOCC1 + NC1CC1c1ccc(-c2cccc(O)c2)cc1
IC50 (second compound 0.1 µM): 158 nM
IC50 (second compound 0.316 µM): 165 nM
IC50 (second compound 1 µM): 151 nM
IC50 (second compound 3.16 µM): 153 nM
IC50 (second compound 10 µM): 93.1 nM
viability, T/C [21]: 106%
viability, T/C [22]: 108%
viability, T/C [23]: 67.2%
viability, T/C [24]: 26.9%
viability, T/C (second compound 0.1 µM, first compound 0.949 µM): 19.2%
viability, T/C (second compound 0.1 µM, first compound 3 µM): 7.41%
viability, T/C [25]: 120%
viability, T/C [26]: 103%
viability, T/C [27]: 65.8%
viability, T/C [28]: 31.9%
viability, T/C (second compound 0.316 µM, first compound 0.949 µM): 16.2%
viability, T/C (second compound 0.316 µM, first compound 3 µM): 7.17%
viability, T/C [29]: 120%
viability, T/C [30]: 105%
viability, T/C [31]: 60.6%
viability, T/C [32]: 31.1%
viability, T/C (second compound 1 µM, first compound 0.949 µM): 16.7%
viability, T/C (second compound 1 µM, first compound 3 µM): 6.44%
viability, T/C [33]: 100%
viability, T/C [34]: 86.6%
viability, T/C [35]: 63.2%
viability, T/C [36]: 31.6%
viability, T/C (second compound 3.16 µM, first compound 0.949 µM): 16.8%
viability, T/C (second compound 3.16 µM, first compound 3 µM): 7.23%
viability, T/C [37]: 84%
viability, T/C [38]: 78.7%
viability, T/C [39]: 48.2%
viability, T/C [40]: 21.1%
viability, T/C (second compound 10 µM, first compound 0.949 µM): 12.8%
viability, T/C (second compound 10 µM, first compound 3 µM): 6.35%

Nc1ncn(C2CC(O)C(CO)S2)c(=O)n1 (stereo not given) + NC1CC1c1ccc(-c2cccc(O)c2)cc1
IC50 (second compound 0.1 µM): 4.6 nM
IC50 (second compound 0.316 µM): 4.26 nM
IC50 (second compound 1 µM): 4.39 nM
IC50 (second compound 3.16 µM): 2.81 nM
IC50 (second compound 10 µM): 0.989 nM
viability, T/C (second compound 0.1 µM, first compound 0.000949 µM): 91.2%
viability, T/C (second compound 0.1 µM, first compound 0.003 µM): 62%
viability, T/C [21]: 29.4%
viability, T/C [22]: 15.9%
viability, T/C [23]: 8.39%
viability, T/C [24]: 4.32%
viability, T/C (second compound 0.316 µM, first compound 0.000949 µM): 84.1%
viability, T/C (second compound 0.316 µM, first compound 0.003 µM): 60.6%
viability, T/C [25]: 26.1%
viability, T/C [26]: 14.8%
viability, T/C [27]: 8.48%
viability, T/C [28]: 4.51%
viability, T/C (second compound 1 µM, first compound 0.000949 µM): 75%
viability, T/C (second compound 1 µM, first compound 0.003 µM): 60.4%
viability, T/C [29]: 29.5%
viability, T/C [30]: 13.8%
viability, T/C [31]: 7.96%
viability, T/C [32]: 4.21%
viability, T/C (second compound 3.16 µM, first compound 0.000949 µM): 61.6%
viability, T/C (second compound 3.16 µM, first compound 0.003 µM): 50.2%
viability, T/C [33]: 25.9%
viability, T/C [34]: 12.9%
viability, T/C [35]: 6.26%
viability, T/C [36]: 4.09%
viability, T/C (second compound 10 µM, first compound 0.000949 µM): 50.1%
viability, T/C (second compound 10 µM, first compound 0.003 µM): 39.8%
viability, T/C [37]: 17.2%
viability, T/C [38]: 9.45%
viability, T/C [39]: 5.85%
viability, T/C [40]: 3.58%

O=C(C=Cn1cnc(-c2cc(C(F)(F)F)cc(C(F)(F)F)c2)n1)NNc1cnccn1 + NC1CC1c1ccc(-c2cccc(O)c2)cc1
IC50 (second compound 0.1 µM): < 3.16 nM
IC50 (second compound 0.316 µM): < 3.16 nM
IC50 (second compound 1 µM): < 3.16 nM
IC50 (second compound 3.16 µM): < 3.16 nM
IC50 (second compound 10 µM): < 3.16 nM
viability, T/C (second compound 0.1 µM, first compound 0.00316 µM): 22.8%
viability, T/C (second compound 0.1 µM, first compound 0.01 µM): 11.1%
viability, T/C [1]: 1.78%
viability, T/C [2]: 0.68%
viability, T/C [3]: 0.55%
viability, T/C [4]: 0.47%
viability, T/C (second compound 0.316 µM, first compound 0.00316 µM): 17.4%
viability, T/C (second compound 0.316 µM, first compound 0.01 µM): 11.5%
viability, T/C [5]: 1.98%
viability, T/C [6]: 0.67%
viability, T/C [7]: 0.5%
viability, T/C [8]: 0.4%
viability, T/C (second compound 1 µM, first compound 0.00316 µM): 19%
viability, T/C (second compound 1 µM, first compound 0.01 µM): 10.3%
viability, T/C [9]: 2.51%
viability, T/C [10]: 0.72%
viability, T/C [11]: 0.52%
viability, T/C [12]: 0.58%
viability, T/C (second compound 3.16 µM, first compound 0.00316 µM): 13.6%
viability, T/C (second compound 3.16 µM, first compound 0.01 µM): 10.3%
viability, T/C [13]: 2.71%
viability, T/C [14]: 0.8%
viability, T/C [15]: 0.52%
viability, T/C [16]: 0.63%
viability, T/C (second compound 10 µM, first compound 0.00316 µM): 14.8%
viability, T/C (second compound 10 µM, first compound 0.01 µM): 8.29%
viability, T/C [17]: 2.21%
viability, T/C [18]: 0.82%
viability, T/C [19]: 0.71%
viability, T/C [20]: 0.78%
